Experimental findings from patent US10786484B2, “Mono- or di-substituted indole derivatives as dengue viral replication inhibitors” (Janssen Pharmaceuticals, Inc., priority 2015, dated 2020) are described below.

pEC50: −log10 of the molar value.

In data set [1] the test system is Vero cells. The conditions noted are these: African green monkey.
The test system of data set [2] is DENV-2 16681 strain labeled with eGFP. The experiment in a line: DENV-2 antiviral assay (eGFP fluorescence read-out in Vero cells). Format: cell-based, Dengue virus. The conditions noted are these: DENV-2 16681 eGFP, MOI 0.5, 3 days. How it is done:
The antiviral activity of all the compounds of the invention was tested against the DENV-2 16681 strain which was labeled with enhanced green fluorescent protein (eGPF). The culture medium consists of minimal essential medium supplemented with 2% of heat-inactivated fetal calf serum, 0.04% gentamycin (50 mg/mL) and 2 mM of L-glutamine. Vero cells, obtained from ECACC, were suspended in culture medium and 25 μL was added to 384-well plates (2500 cells/well), which already contain the antiviral compounds. Typically, these plates contain a 5-fold serial dilution of 9 dilution steps of the test compound at 200 times the final concentration in 100% DMSO (200 nL). […] Finally, each plate contains wells which are assigned as virus controls (containing cells and virus in the absence of compound), cell controls (containing cells in the absence of virus and compound) and medium controls (containing medium in the absence of cells, virus and compounds). To the wells assigned as medium control, 25 μL of culture medium was added instead of Vero cells. Once the cells were added to the plates, the plates were incubated for 30 minutes at room temperature to allow the cells to distribute evenly within the wells. Next, the plates were incubated in a fully humidified incubator (37° C., 5% CO2) until the next day. Then, DENV-2 strain 16681, labeled with eGFP, was added at a multiplicity of infection (MOI) of 0.5. Therefore, 15 μL of virus suspension was added to all the wells containing test compound and to the wells assigned as virus control. In parallel, 15 μL of culture medium was added to the medium and cell controls. Next, the plates were incubated for 3 days in a fully humidified incubator (37° C., 5% CO2). At the day of the read out, the eGFP fluorescence was measured using an automated fluorescence microscope at 488 nm (blue laser). Using an in-house LIMS system, inhibition dose response curves for each compound were calculated and the half maximal effective concentration (EC50) was determined. Therefore, the percent inhibition (I) for every test concentration is calculated using the following formula: I=100*([…])/(SVC−SCC); ST, SCC and SVC are the amount of eGFP signal in the test compound, cell control and virus control wells, respectively. The EC50 represents the concentration of a compound at which the virus replication is inhibited with 50%, as measured by a 50% reduction of the eGFP fluorescent intensity compared to the virus control. The EC50 is calculated using linear interpolation (Table 1).

Turning to `COc1cc(NC(C(=O)c2c[nH]c3cc(F)ccc23)c2ccc(F)cc2OCCO)cc(S(C)(=O)=O)c1` (single isomer, unassigned) [Compound 1B, 1-(6-fluoro-1H-indol-3-yl)-2-(4-fluoro-2-(2-hydroxyethoxy)phenyl)-2-((3-methoxy-5-(methylsulfonyl)phenyl)amino)ethanone], in data set [1], the 50% cytotoxic concentration (CC50) is 13 µM. Moreover, the pEC50 in data set [2] was 7.07.

In turn, `COc1cc(NC(C(=O)c2c[nH]c3cc(Cl)ccc23)c2ccc(F)cc2OCCO)cc(S(C)(=O)=O)c1` (single isomer, unassigned) [Compound 2B, 1-(6-chloro-1H-indol-3-yl)-2-(4-fluoro-2-(2-hydroxyethoxy)phenyl)-2-((3-methoxy-5-(methylsulfonyl)phenyl)amino)-ethanone] returned a half-maximal cytotoxic concentration (CC50) in data set [1] of 12 µM. Moreover, the negative-log EC50 (pEC50) in data set [2] was 7.68.

The compound `COc1cc(NC(C(=O)c2c[nH]c3c(C)c(F)ccc23)c2ccc(F)cc2OCCO)cc(S(C)(=O)=O)c1` (single isomer, unassigned) [Compound 3B, 2-(4-fluoro-2-(2-hydroxyethoxy)phenyl)-1-(6-fluoro-7-methyl-1H-indol-3-yl)-2-((3-methoxy-5-(methylsulfonyl)phenyl)amino)ethanone] gave a CC50 in data set [1] of 11 µM. In addition, the pEC50 in data set [2] was 7.54.

`COc1cc(NC(C(=O)c2c[nH]c3c(C)c(Cl)ccc23)c2ccc(F)cc2OCCO)cc(S(C)(=O)=O)c1` (single isomer, unassigned) [Compound 4A, 1-(6-chloro-7-methyl-1H-indol-3-yl)-2-(4-fluoro-2-(2-hydroxyethoxy)phenyl)-2-((3-methoxy-5-(methylsulfonyl)phenyl)amino)ethanone] yielded a CC50 in data set [1] of 11 µM. In addition, the negative logarithm of the EC50 (pEC50) in data set [2] is 7.96.

Compound `COc1cc(NC(C(=O)c2c[nH]c3cc(F)c(F)cc23)c2ccc(F)cc2OCCO)cc(S(C)(=O)=O)c1` (single isomer, unassigned) [Compound 5B, 1-(5,6-difluoro-1H-indol-3-yl)-2-(4-fluoro-2-(2-hydroxyethoxy)phenyl)-2-((3-methoxy-5-(methylsulfonyl)phenyl)-amino)ethanone] displayed a CC50 in data set [1] of 11 µM. Further, in data set [2], the negative logarithm of the EC50 (pEC50) was 7.80.

The compound `COc1cc(NC(C(=O)c2c[nH]c3cc(OC)c(C)cc23)c2ccc(F)cc2OCCO)cc(S(C)(=O)=O)c1` (single isomer, unassigned) [Compound 6B, 2-(4-fluoro-2-(2-hydroxyethoxy)phenyl)-2-((3-methoxy-5-(methylsulfonyl)phenyl)amino)-1-(6-methoxy-5-methyl-1H-indol-3-yl)ethanone] returned a 50% cytotoxic concentration (CC50) in data set [1] of 13 µM. Also, in data set [2], the negative logarithm of the EC50 (pEC50) was 6.80.

Turning to `COc1cc(NC(C(=O)c2c[nH]c3cc(F)c(C)cc23)c2ccc(F)cc2OCCO)cc(S(C)(=O)=O)c1` (single isomer, unassigned) [Compound 7B, 2-(4-fluoro-2-(2-hydroxyethoxy)phenyl)-1-(6-fluoro-5-methyl-1H-indol-3-yl)-2-((3-methoxy-5-(methylsulfonyl)phenyl)amino)ethanone], the half-maximal cytotoxic concentration (CC50) in data set [1] was 8 µM. For the same compound, the negative logarithm of the EC50 (pEC50) in data set [2] was 7.44.

Compound `COc1cc(NC(C(=O)c2c[nH]c3c(F)cc(C)cc23)c2ccc(F)cc2OCCO)cc(S(C)(=O)=O)c1` (single isomer, unassigned) [Compound 8B, 2-(4-fluoro-2-(2-hydroxyethoxy)phenyl)-1-(7-fluoro-5-methyl-1H-indol-3-yl)-2-((3-methoxy-5-(methylsulfonyl)phenyl)amino)ethanone] came in with a CC50 in data set [1] of 8.2 µM. In data set [2], the pEC50 is 7.32.

With `COc1cc(NC(C(=O)c2c[nH]c3c(C)cc(Cl)cc23)c2ccc(F)cc2OCCO)cc(S(C)(=O)=O)c1` (single isomer, unassigned) [Compound 9B, 1-(5-chloro-7-methyl-1H-indol-3-yl)-2-(4-fluoro-2-(2-hydroxyethoxy)phenyl)-2-((3-methoxy-5-(methylsulfonyl)phenyl)amino)ethanone], in data set [1], the half-maximal cytotoxic concentration (CC50) turned out to be 13 µM. The pEC50 in data set [2] was 7.29.

On to `COc1cc(NC(C(=O)c2c[nH]c3ccc(OC(F)(F)F)cc23)c2ccc(F)cc2OCCO)cc(S(C)(=O)=O)c1` (single isomer, unassigned) [Compound 10A, 2-(4-fluoro-2-(2-hydroxyethoxy)phenyl)-2-((3-methoxy-5-(methylsulfonyl)phenyl)amino)-1-(5-(trifluoromethoxy)-1H-indol-3-yl)ethanone], for which the midpoint of cytotoxicity in data set [1], the CC50, lay at 12 µM. Besides, the pEC50 in data set [2] was 7.70.

Take `COc1cc(NC(C(=O)c2c[nH]c3cc(OC)c(OC(F)(F)F)cc23)c2ccc(F)cc2OCCO)cc(S(C)(=O)=O)c1` (single isomer, unassigned) [Compound 11A, 2-(4-fluoro-2-(2-hydroxyethoxy)phenyl)-2-((3-methoxy-5-(methyl-sulfonyl)phenyl)amino)-1-(6-methoxy-5-(trifluoromethoxy)-1H-indol-3-yl)ethanone]: the half-maximal cytotoxic concentration (CC50) in data set [1] amounted to 12 µM. Also, the pEC50 in data set [2] is 7.72.

Turning to `COc1cc(NC(C(=O)c2c[nH]c3c(C)cc(OC(F)(F)F)cc23)c2ccc(F)cc2OCCO)cc(S(C)(=O)=O)c1` (single isomer, unassigned) [Compound 12B, 2-(4-fluoro-2-(2-hydroxyethoxy)phenyl)-2-((3-methoxy-5-(methylsulfonyl)phenyl)amino)-1-(7-methyl-5-(trifluoromethoxy)-1H-indol-3-yl)ethanone], the CC50 in data set [1] came to 9.9 µM. In addition, the negative-log EC50 (pEC50) in data set [2] was 8.92.
